From patent US8748624B2, “Picolinamido-propanoic acid derivatives useful as glucagon receptor antagonists” (Janssen Pharmaceutica NV, priority 2011, dated 2014)
Where two headings read alike, the source gives them in different places.

How the values were obtained:
human GCGR = human GCGR (Homo sapiens (Human), UniProt P47871); experiment: Cellular functional assay, cAMP readout (glucagon-stimulated cAMP in HEK293 cells expressing human GCGR); format: cell-based; conditions: hGluc-1 HEK cells, LANCE TR-FRET, IC50 converted to Ki, average if tested more than once
Chain of human GCGR (P47871 26-477): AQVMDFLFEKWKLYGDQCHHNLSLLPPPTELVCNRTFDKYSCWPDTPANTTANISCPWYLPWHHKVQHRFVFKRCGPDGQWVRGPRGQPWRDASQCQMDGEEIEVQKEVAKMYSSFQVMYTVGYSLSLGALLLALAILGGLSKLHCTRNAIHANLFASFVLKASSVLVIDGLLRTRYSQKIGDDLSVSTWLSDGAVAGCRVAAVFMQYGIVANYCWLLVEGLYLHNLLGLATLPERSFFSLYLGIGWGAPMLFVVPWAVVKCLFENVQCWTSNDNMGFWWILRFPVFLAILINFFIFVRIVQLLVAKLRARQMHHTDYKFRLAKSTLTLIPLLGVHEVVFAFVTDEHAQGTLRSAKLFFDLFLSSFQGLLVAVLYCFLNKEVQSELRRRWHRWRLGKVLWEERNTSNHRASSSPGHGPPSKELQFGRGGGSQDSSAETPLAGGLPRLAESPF
Summary of the method: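 HEK293 cells stably transfected with full-length human GCGR were exposed to compound for 30 min before a 5-min challenge with […] (final) glucagon. Readout was TR-FRET (LANCE) cAMP versus standard curve; IC50s fitted by non-linear regression and converted to Ki values.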

[1] = target: human glucagon receptor (GCGR) (Homo sapiens (Human), UniProt P47871); experiment: Inhibition of 125I-glucagon binding to membranes from HEK293 cells expressing the human glucagon receptor
Chain of human glucagon receptor (GCGR) (P47871 26-477): as above
Summary of the method: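 Filtration binding assay on membranes from HEK293 cells stably expressing full-length human GCGR, 6 μg protein/well, with 0.3 nM ¹²⁵I-glucagon plus compound, 2 h at room temperature. Buffer: 50 mM HEPES pH 7.4, 5 mM MgCl2, 1 mM CaCl2, 0.2% BSA. IC50 by non-linear regression, converted to Ki.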

[2] = membranes of hGluc-1 HEK cells, 125I-glucagon 0.3 nM, 2 hours room temperature, IC50 converted to Ki, average if tested more than once

Row | Compound | Ki (human GCGR) [nM] | Ki [1, 2] [nM] | Ki [1] [nM]
1 | O=C(O)CCNC(=O)c1ccc(-c2cc(Cl)ccc2CNc2ccc(-c3cccc(F)c3)cc2)cn1 [Compound 134, 3-(5-(5-chloro-2-(((3′-fluoro-[1,1′-biphenyl]-4-yl)amino)methyl)phenyl)picolinamido)propanoic acid] | 600 | 38.3 | 
2 | O=C(O)CCNC(=O)c1ccc(-c2cc(Cl)ccc2CNc2ccc(-c3ccccc3Cl)cc2)cn1 [Compound 135, 3-(5-(5-chloro-2-(((2′-chloro-[1,1′-biphenyl]-4-yl)amino)methyl)phenyl)picolinamido)propanoic acid] | 3000 | 63.9 | 
3 | O=C(O)CCNC(=O)c1ccc(-c2cc(Cl)ccc2CNc2ccc(-c3ccc(F)c(F)c3)cc2)cn1 [Compound 136, 3-(5-(5-chloro-2-(((3′,4′-difluoro-[1,1′-biphenyl]-4-yl)amino)methyl)phenyl)picolinamido)propanoic acid] | 253 | 28.6 | 
4 | O=C(O)CCNC(=O)c1ccc(-c2cc(Cl)ccc2CNc2ccc(-c3cc(F)cc(F)c3)cc2)cn1 [Compound 137, 3-(5-(5-chloro-2-(((3′,5′-difluoro-[1,1′-biphenyl]-4-yl)amino)methyl)phenyl)picolinamido)propanoic acid] | 425 | 61.1 | 
5 | O=C(O)CCNC(=O)c1ccc(-c2cc(Cl)ccc2CNc2ccc(-c3ccc(F)cc3Cl)c(Cl)c2)cn1 [Compound 138, 3-(5-(5-chloro-2-(((2,2′-dichloro-4′-fluoro-[1,1′-biphenyl]-4-yl)amino)methyl)phenyl)picolinamido)propanoic acid] | 121 |  | 22.9
6 | Cc1cc(-c2ccc(NCc3ccc(Cl)cc3-c3ccc(C(=O)NCCC(=O)O)nc3)cc2Cl)ccc1F [Compound 139, 3-(5-(5-chloro-2-(((2-chloro-4′-fluoro-3′-methyl-[1,1′-biphenyl]-4-yl)amino)methyl)phenyl)picolinamido)propanoic acid] | 120 | 29.1 | 
7 | O=C(O)CCNC(=O)c1ccc(-c2cc(Cl)ccc2CNc2ccc(-c3ccc(OC(F)(F)F)cc3)c(Cl)c2)cn1 [Compound 140, 3-(5-(5-chloro-2-(((2-chloro-4′-(trifluoromethoxy)-[1,1′-biphenyl]-4-yl)amino)methyl)phenyl)picolinamido)propanoic acid] | 84.3 | 21.5 | 
8 | O=C(O)CCNC(=O)c1ccc(-c2cc(Cl)ccc2CNc2ccc(-c3c(F)cccc3Cl)cc2)cn1 [Compound 141, 3-(5-(5-chloro-2-(((2′-chloro-6′-fluoro-[1,1′-biphenyl]-4-yl)amino)methyl)phenyl)picolinamido)propanoic acid] | 138 | 30.9 | 
9 | O=C(O)CCNC(=O)c1ccc(-c2cc(Cl)ccc2CNc2ccc(-c3ccc(F)cc3C(F)(F)F)c(Cl)c2)cn1 [Compound 142, 3-(5-(5-chloro-2-(((2-chloro-4′-fluoro-2′-(trifluoromethyl)-[1,1′-biphenyl]-4-yl)amino)methyl)phenyl)picolinamido)propanoic acid] | 225 | 31.3 | 
10 | COc1ccc(-c2ccc(NCc3ccc(Cl)cc3-c3ccc(C(=O)NCCC(=O)O)nc3)cc2)c(Cl)c1 [Compound 143, 3-(5-(5-chloro-2-(((2′-chloro-4′-methoxy-[1,1′-biphenyl]-4-yl)amino)methyl)phenyl)picolinamido)propanoic acid] | 106 | 28.2 | 
11 | O=C(O)CCNC(=O)c1ccc(-c2cc(Cl)ccc2CNc2ccc(-c3ccc(F)c(C(F)(F)F)c3)c(Cl)c2)cn1 [Compound 144, 3-(5-(5-chloro-2-(((2-chloro-4′-fluoro-3′-(trifluoromethyl)-[1,1′-biphenyl]-4-yl)amino)methyl)phenyl)picolinamido)propanoic acid] | 23 | 12.4 | 
12 | Cc1ccc(C(=O)Nc2ccc(-c3ccc(Cl)cc3)cc2)c(-c2ccc(C(=O)NCCC(=O)O)nc2)c1 [Compound 145, 3-(5-(2-((4′-chloro-[1,1′-biphenyl]-4-yl)carbamoyl)-5-methylphenyl)picolinamido)propanoic acid] | 68.1 | 36.3 | 
13 | Cc1cc(-c2ccc(NCc3ccc(Cl)cc3-c3ccc(C(=O)NCCC(=O)O)nc3)cc2)ccc1F [Compound 146, 3-(5-(5-chloro-2-(((4′-fluoro-3′-methyl-[1,1′-biphenyl]-4-yl)amino)methyl)phenyl)picolinamido)propanoic acid] | 268 | 28.1 | 
14 | O=C(O)CCNC(=O)c1ccc(-c2cc(Cl)ccc2CNc2ccc(-c3ccc(C(F)(F)F)cc3Cl)cc2)cn1 [Compound 147, 3-(5-(5-chloro-2-(((2′-chloro-4′-(trifluoromethyl)-[1,1′-biphenyl]-4-yl)amino)methyl)phenyl)picolinamido)propanoic acid] | 60 | 15.7 | 
15 | Cc1cc(Cl)ccc1-c1ccc(NCc2ccc(Cl)cc2-c2ccc(C(=O)NCCC(=O)O)nc2)cc1 [Compound 148, 3-(5-(5-chloro-2-(((4′-chloro-2′-methyl-[1,1′-biphenyl]-4-yl)amino)methyl)phenyl)picolinamido)propanoic acid] | 34 | 18.7 | 
16 | O=C(O)CCNC(=O)c1ccc(-c2cc(Cl)ccc2CNc2ccc(-c3ccc(F)cc3C(F)(F)F)cc2)cn1 [Compound 149, 3-(5-(5-chloro-2-(((4′-fluoro-2′-(trifluoromethyl)-[1,1′-biphenyl]-4-yl)amino)methyl)phenyl)picolinamido)propanoic acid] | 430 | 40 | 
17 | O=C(O)CCNC(=O)c1ccc(-c2cc(Cl)ccc2CNc2ccc(-c3ccc(F)c(Cl)c3)cc2)cn1 [Compound 150, 3-(5-(5-chloro-2-(((3′-chloro-4′-fluoro-[1,1′-biphenyl]-4-yl)amino)methyl)phenyl)picolinamido)propanoic acid] | 73.3 | 27.7 | 
18 | Cc1cc(F)ccc1-c1ccc(NCc2ccc(Cl)cc2-c2ccc(C(=O)NCCC(=O)O)nc2)cc1 [Compound 151, 3-(5-(5-chloro-2-(((4′-fluoro-2′-methyl-[1,1′-biphenyl]-4-yl)amino)methyl)phenyl)picolinamido)propanoic acid] | 113 | 16.5 | 
19 | O=C(O)CCNC(=O)c1ccc(-c2cc(Cl)ccc2CNc2ccc(-c3ccc(F)cc3Cl)cc2)cn1 [Compound 152, 3-(5-(5-chloro-2-(((2′-chloro-4′-fluoro-[1,1′-biphenyl]-4-yl)amino)methyl)phenyl)picolinamido)propanoic acid] | 140 | 31.6 | 
20 | Cc1cc(Cl)ccc1-c1ccc(NC(=O)c2ccc(Cl)cc2-c2ccc(C(=O)NCCC(=O)O)nc2)cc1 [Compound 153, 3-(5-(5-chloro-2-((4′-chloro-2′-methyl-[1,1′-biphenyl]-4-yl)carbamoyl)phenyl)picolinamido)propanoic acid] | 28 | 32.9 | 
21 | CC(Nc1ccc(-c2ccc(F)cc2)cc1)c1ccc(Cl)cc1-c1ccc(C(=O)NCCC(=O)O)nc1 (centres unmarked) [Compound 155, 3-(5-(5-chloro-2-(1-((4′-fluoro-[1,1′-biphenyl]-4-yl)amino)ethyl)phenyl)picolinamido)propanoic acid] | 2200 | 235 | 
22 | CC(=O)c1ccc(-c2ccc(NCc3ccc(Cl)cc3-c3ccc(C(=O)NCCC(=O)O)nc3)cc2)cc1 [Compound 156, 3-(5-(2-(((4′-acetyl-[1,1′-biphenyl]-4-yl)amino)methyl)-5-chlorophenyl)picolinamido)propanoic acid] | 161 | 37.8 | 
23 | C=C(C)c1ccc(CNc2ccc(-c3ccc(F)cc3)cc2)c(-c2ccc(C(=O)NCCC(=O)O)nc2)c1 [Compound 157, 3-(5-(2-(((4′-fluoro-[1,1′-biphenyl]-4-yl)amino)methyl)-5-(prop-1-en-2-yl)phenyl)picolinamido)propanoic acid] | 113 | 33.5 | 
24 | CC(C)c1ccc(CNc2ccc(-c3ccc(F)cc3)cc2)c(-c2ccc(C(=O)NCCC(=O)O)nc2)c1 [Compound 158, 3-(5-(2-(((4′-fluoro-[1,1′-biphenyl]-4-yl)amino)methyl)-5-isopropylphenyl)picolinamido)propanoic acid] | 125 | 20 | 
25 | CC(C)(C)c1ccc(-c2ccc(NCc3ccc(Cl)cc3-c3ccc(C(=O)NCCC(=O)O)nc3)cc2Cl)cc1 [Compound 168, 3-(5-(2-(((4′-(tert-butyl)-2-chloro-[1,1′-biphenyl]-4-yl)amino)methyl)-5-chlorophenyl)picolinamido)propanoic acid] | 370 | 37.9 | 
26 | O=C(O)CCNC(=O)c1ccc(-c2cc(Cl)ccc2CNc2ccc(-c3ccc(Cl)c(C(F)(F)F)c3)c(Cl)c2)cn1 [Compound 169, 3-(5-(5-chloro-2-(((2,4′-dichloro-3′-(trifluoromethyl)-[1,1′-biphenyl]-4-yl)amino)methyl)phenyl)picolinamido)propanoic acid] | 142 | 39 | 
27 | O=C(O)CCNC(=O)c1ccc(-c2cc(Cl)ccc2CNc2ccc(-c3cccc(C(F)(F)F)c3)c(Cl)c2)cn1 [Compound 170, 3-(5-(5-chloro-2-(((2-chloro-3′-(trifluoromethyl)-[1,1′-biphenyl]-4-yl)amino)methyl)phenyl)picolinamido)propanoic acid] | 66.8 | 20.7 | 
28 | O=C(O)CCNC(=O)c1ccc(-c2cc(Cl)ccc2CNc2ccc(-c3ccc(F)c(Cl)c3)c(Cl)c2)cn1 [Compound 171, 3-(5-(5-chloro-2-(((2,3′-dichloro-4′-fluoro-[1,1′-biphenyl]-4-yl)amino)methyl)phenyl)picolinamido)propanoic acid] | 117 | 36 | 
